From patent US20070027150A1 (priority 2005, published 2007)

What follows are compounds tested against His-tagged N-terminal ATP binding domain (amino acid residues 9-236) of HSP90α (Homo sapiens, UniProt P07900) (assay: HSP90 inhibitor binding potency: TRF competition binding assay). Conditions: Table I; read-out: Hsp90 IC50 Range.
Summary of the method: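 His-tagged HSP90α N-domain (residues 9-236) incubated 2 h at room temperature with biotinylated radicicol and increasing compound in 50 mM HEPES, 6 mM MgCl2, 20 mM KCl, 0.1% BSA. Bound tracer captured on streptavidin plates, detected with europium anti-His antibody by time-resolved fluorescence; IC50 derived.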

Row | IC50 [µM] | SMILES
1 | > 10 | COc1cccc(C2CCCCC2)c1C1CC(=O)c2c(C)nc(N)nc2C1 (stereo not drawn) [Compound 173, 2-amino-7-(2-cyclohexyl-6-methoxyphenyl)-4-methyl-7,8-dihydroquinazolin-5(6H)-one]
2 | 1 to 10 | Cc1nc(N)nc2c1C(=O)CC(c1ccccc1-c1cccc(CN(C)C)c1)C2 (stereo not drawn) [Compound 174, 2-amino-7-{3′-[(dimethylamino)methyl]-1,1′-biphenyl-2-yl}-4-methyl-7,8-dihydroquinazolin-5(6H)-one]

Same assay, conditions: Table II; read-out: Hsp90 IC50 Range

Row | IC50 [µM] | SMILES
3 | < 1 | Cc1nc(N)nc2c1C(=O)CC(c1ncccc1OC(C)C)C2 (stereo not drawn) [Compound 175, 2-amino-7-(3-isopropoxy-pyridin-2-yl)-4-methyl-7,8-dihydro-6H-quinazolin-5-one]
4 | < 1 | Cc1nc(N)nc2c1C(=O)CC(c1ccccc1SC(C)(C)C)C2 (stereo not drawn) [Compound 180, 2-amino-7-(2-tert-butylsulfanyl-phenyl)-4-methyl-7,8-dihydro-6H-quinazolin-5-one]
5 | < 1 | Cc1nc(N)nc2c1C(=O)CC(c1ccc(F)cc1OC1CCCC1)C2 (stereo not drawn) [Compound 181, 2-amino-7-(2-cyclopentyloxy-4-fluoro-phenyl)-4-methyl-7,8-dihydro-6H-quinazolin-5-one]
6 | < 1 | CCc1cccc(-c2cc(F)ccc2C2CC(=O)c3c(C)nc(N)nc3C2)n1 (stereo not drawn) [Compound 183, 2-amino-7-[2-(6-ethyl-pyridin-2-yl)-4-fluoro-phenyl]-4-methyl-7,8-dihydro-6H-quinazolin-5-one]
7 | < 1 | COc1ccc(F)c(-c2cc(F)ccc2C2CC(=O)c3c(C)nc(N)nc3C2)c1 (stereo not drawn) [Compound 186, 2-amino-7-(5,2′-difluoro-5′-methoxy-biphenyl-2-yl)-4-methyl-7,8-dihydro-6H-quinazolin-5-one]
8 | < 1 | Cc1nc(N)nc2c1C(=O)CC(c1cnccc1-c1cccc(Br)c1)C2 (stereo not drawn) [Compound 187, 2-amino-7-[4-(3-bromo-phenyl)-pyridin-3-yl]-4-methyl-7,8-dihydro-6H-quinazolin-5-one]
9 | < 1 | Cc1nc(N)nc2c1C(=O)CC(c1nccn1-c1ccccc1F)C2 (stereo not drawn) [Compound 188, 2-amino-7-[1-(2-fluoro-phenyl)-1H-imidazol-2-yl]-4-methyl-7,8-dihydro-6H-quinazolin-5-one]
10 | < 1 | Cc1nc(N)nc2c1C(=O)CC(c1nccn1C1CCCC1)C2 (stereo not drawn) [Compound 189, 2-amino-7-(1-cyclopentyl-1H-imidazol-2-yl)-4-methyl-7,8-dihydro-6H-quinazolin-5-one]
11 | > 10 | CCOc1cccc(-n2ccnc2C2CC(=O)c3c(C)nc(N)nc3C2)c1 (stereo not drawn) [Compound 191, 2-amino-7-[1-(3-ethoxy-phenyl)-1H-imidazol-2-yl]-4-methyl-7,8-dihydro-6H-quinazolin-5-one]
12 | < 1 | COc1ccccc1-n1ccnc1C1CC(=O)c2c(C)nc(N)nc2C1 (stereo not drawn) [Compound 194, 2-amino-7-[1-(2-methoxy-phenyl)-1H-imidazol-2-yl]-4-methyl-7,8-dihydro-6H-quinazolin-5-one]
13 | < 1 | CCc1ccccc1-n1ccnc1C1CC(=O)c2c(C)nc(N)nc2C1 (stereo not drawn) [Compound 195, 2-amino-7-[1-(2-ethyl-phenyl)-1H-imidazol-2-yl]-4-methyl-7,8-dihydro-6H-quinazolin-5-one]
14 | 1 to 10 | COc1ccc(F)c(-n2ccnc2C2CC(=O)c3c(C)nc(N)nc3C2)c1 (stereo not drawn) [Compound 196, 2-amino-7-[1-(2-fluoro-5-methoxy-phenyl)-1H-imidazol-2-yl]-4-methyl-7,8-dihydro-6H-quinazolin-5-one]
15 | > 10 | Cc1nc(N)nc2c1C(=O)CC(c1nccn1-c1cccc(OC(F)(F)F)c1)C2 (stereo not drawn) [Compound 198, 2-amino-4-methyl-7-[1-(3-trifluoromethoxy-phenyl)-1H-imidazol-2-yl]-7,8-dihydro-6H-quinazolin-5-one]
16 | < 1 | CCc1c[nH]nc1-n1ccnc1C1CC(=O)c2c(C)nc(N)nc2C1 (stereo not drawn) [Compound 200, 2-amino-7-[1-(4-ethyl-1H-pyrazol-3-yl)-1H-imidazol-2-yl]-4-methyl-7,8-dihydro-6H-quinazolin-5-one]
17 | 1 to 10 | CCc1cccc(-n2ccnc2C2CC(=O)c3c(C)nc(N)nc3C2)n1 (stereo not drawn) [Compound 201, 2-amino-7-[1-(6-ethyl-pyridin-2-yl)-1H-imidazol-2-yl]-4-methyl-7,8-dihydro-6H-quinazolin-5-one]
18 | < 1 | COc1cccc(-n2ccnc2[C@@H]2CC(=O)c3c(C)nc(N)nc3C2)n1 [Compound 204, (S)-2-amino-7-[1-(6-methoxy-pyridin-2-yl)-1H-imidazol-2-yl]-4-methyl-7,8-dihydro-6H-quinazolin-5-one]
19 | < 1 | COc1cccc(-n2cc(C(F)(F)F)nc2C2CC(=O)c3c(C)nc(N)nc3C2)n1 (stereo not drawn) [Compound 205, 2-amino-7-[1-(6-methoxy-pyridin-2-yl)-4-trifluoromethyl-1H-imidazol-2-yl]-4-methyl-7,8-dihydro-6H-quinazolin-5-one]
20 | < 1 | COc1nc(-n2ccnc2C2CC(=O)c3c(C)nc(N)nc3C2)ncc1C (stereo not drawn) [Compound 206, 2-amino-7-[1-(4-methoxy-5-methyl-pyrimidin-2-yl)-1H-imidazol-2-yl]-4-methyl-7,8-dihydro-6H-quinazolin-5-one]
21 | > 10 | COc1nc(-n2ccnc2[C@H]2CC(=O)c3c(C)nc(N)nc3C2)ncc1C [Compound 207, (R)-2-amino-7-[1-(4-methoxy-5-methyl-pyrimidin-2-yl)-1H-imidazol-2-yl]-4-methyl-7,8-dihydro-6H-quinazolin-5-one]

The next lines start with the compound.

Row | SMILES | IC50 [µM]
22 | Cc1nc(N)nc2c1C(=O)CC(c1ccc(F)cc1OC(C)C)C2 (stereo not drawn) [Compound 176, 2-amino-7-(4-fluoro-2-isopropoxy-phenyl)-4-methyl-7,8-dihydro-6H-quinazolin-5-one] | < 1
23 | Cc1nc(N)nc2c1C(=O)CC(c1ncccc1OC1CCCC1)C2 (stereo not drawn) [Compound 177, 2-amino-7-(3-cyclopentyloxy-pyridin-2-yl)-4-methyl-7,8-dihydro-6H-quinazolin-5-one] | < 1
24 | Cc1nc(N)nc2c1C(=O)CC(c1ncccc1OC1CCCC1)C2 (stereo not drawn) [Compound 178, 2-amino-7-(3-cyclopentyloxy-pyridin-2-yl)-4-methyl-7,8-dihydro-6H-quinazolin-5-one] | < 1
25 | Cc1nc(N)nc2c1C(=O)CC(c1ccc(F)cc1OCC1CC1)C2 (stereo not drawn) [Compound 179, 2-amino-7-(2-cyclopropylmethoxy-4-fluoro-phenyl)-4-methyl-7,8-dihydro-6H-quinazolin-5-one] | < 1
26 | Cc1nc(N)nc2c1C(=O)CC(c1ccccc1S(=O)(=O)C(C)(C)C)C2 (stereo not drawn) [Compound 182, 2-amino-4-methyl-7-[2-(2-methyl-propane-2-sulfonyl)-phenyl]-7,8-dihydro-6H-quinazolin-5-one] | < 1
27 | Cc1nc(N)nc2c1C(=O)CC(c1ccccc1S(=O)(=O)N1CCCC1)C2 (stereo not drawn) [Compound 184, 2-amino-4-methyl-7-[2-(pyrrolidine-1-sulfonyl)-phenyl]-7,8-dihydro-6H-quinazolin-5-one] | 1 to 10
28 | Cc1nc(N)nc2c1C(=O)CC(c1ccccc1S(=O)(=O)N(C)C(C)C)C2 (stereo not drawn) [Compound 185, 2-(2-amino-4-methyl-5-oxo-5,6,7,8-tetrahydro-quinazolin-7-yl)-N-isopropyl-N-methyl-benzenesulfonamide] | 1 to 10
29 | COc1cccc(-n2ccnc2C2CC(=O)c3c(C)nc(N)nc3C2)c1 (stereo not drawn) [Compound 190, 2-amino-7-[1-(3-methoxy-phenyl)-1H-imidazol-2-yl]-4-methyl-7,8-dihydro-6H-quinazolin-5-one] | 1 to 10
30 | C#CCCOc1cc(F)ccc1C1CC(=O)c2c(C)nc(N)nc2C1 (stereo not drawn) [Compound 192, 2-amino-7-(2-but-3-ynyloxy-4-fluoro-phenyl)-4-methyl-7,8-dihydro-6H-quinazolin-5-one] | < 1
31 | COc1cccc(-n2ccnc2C2CC(=O)c3c(C)nc(N)nc3C2)n1 (stereo not drawn) [Compound 193, 2-amino-7-[1-(6-methoxy-pyridin-2-yl)-1H-imidazol-2-yl]-4-methyl-7,8-dihydro-6H-quinazolin-5-one] | < 1
32 | C#Cc1cccc(-n2ccnc2C2CC(=O)c3c(C)nc(N)nc3C2)c1 (stereo not drawn) [Compound 197, 2-amino-7-[1-(3-ethynyl-phenyl)-1H-imidazol-2-yl]-4-methyl-7,8-dihydro-6H-quinazolin-5-one] | < 1
33 | COc1ccc(C(F)(F)F)cc1-n1ccnc1C1CC(=O)c2c(C)nc(N)nc2C1 (stereo not drawn) [Compound 199, 2-amino-7-[1-(2-methoxy-5-trifluoromethyl-phenyl)-1H-imidazol-2-yl]-4-methyl-7,8-dihydro-6H-quinazolin-5-one] | 1 to 10
34 | COc1ncccc1-n1ccnc1C1CC(=O)c2c(C)nc(N)nc2C1 (stereo not drawn) [Compound 202, 2-amino-7-[1-(2-methoxy-pyridin-3-yl)-1H-imidazol-2-yl]-4-methyl-7,8-dihydro-6H-quinazolin-5-one] | < 1
35 | COc1cccc(-n2ccnc2[C@H]2CC(=O)c3c(C)nc(N)nc3C2)n1 [Compound 203, (R)-2-amino-7-[1-(6-methoxy-pyridin-2-yl)-1H-imidazol-2-yl]-4-methyl-7,8-dihydro-6H-quinazolin-5-one] | 1 to 10
36 | COc1nc(-n2ccnc2[C@@H]2CC(=O)c3c(C)nc(N)nc3C2)ncc1C [Compound 208, (S)-2-amino-7-[1-(4-methoxy-5-methyl-pyrimidin-2-yl)-1H-imidazol-2-yl]-4-methyl-7,8-dihydro-6H-quinazolin-5-one] | < 1
37 | Cc1nc(N)nc2c1C(=O)CC(c1nccn1Cc1ccccn1)C2 (stereo not drawn) [Compound 209, 2-amino-4-methyl-7-(1-pyridin-2-ylmethyl-1H-imidazol-2-yl)-7,8-dihydro-6H-quinazolin-5-one] | > 10
38 | CCc1nc(N)nc2c1C(=O)CC(c1ccccc1)C2 (stereo not drawn) [Compound 210, 2-amino-4-ethyl-7-phenyl-7,8-dihydro-6H-quinazolin-5-one] | > 10
39 | COCc1nc(N)nc2c1C(=O)CC(c1ccccc1)C2 (stereo not drawn) [Compound 211, 2-amino-4-methoxymethyl-7-phenyl-7,8-dihydro-6H-quinazolin-5-one] | > 10
